Measured values published in ChEMBL document CHEMBL1127157, “Synthesis and biological activity of 2-desamino and 4-deoxy analogs of 5,10-dideazatetrahydrofolic acid (DDATHF)” (Bioorg Med Chem Lett, 1993).
In brackets after ≈: the same amount, converted by molar mass.

Key:
[1] = system: CCRF-CEM; experiment: Tested for the growth inhibition of CCRF-CEM, a human T-cell derived lymphoblastic leukemic cell line; type: functional, cell-based
[2] = target: T1, Trifunctional purine biosynthetic protein adenosine-3 (Homo sapiens, UniProt P22102); experiment: Tested for the inhibition of recombinant human monofunctional Glycinamide ribonucleotide formyltransferase
T1 sequence (P22102 whole entry): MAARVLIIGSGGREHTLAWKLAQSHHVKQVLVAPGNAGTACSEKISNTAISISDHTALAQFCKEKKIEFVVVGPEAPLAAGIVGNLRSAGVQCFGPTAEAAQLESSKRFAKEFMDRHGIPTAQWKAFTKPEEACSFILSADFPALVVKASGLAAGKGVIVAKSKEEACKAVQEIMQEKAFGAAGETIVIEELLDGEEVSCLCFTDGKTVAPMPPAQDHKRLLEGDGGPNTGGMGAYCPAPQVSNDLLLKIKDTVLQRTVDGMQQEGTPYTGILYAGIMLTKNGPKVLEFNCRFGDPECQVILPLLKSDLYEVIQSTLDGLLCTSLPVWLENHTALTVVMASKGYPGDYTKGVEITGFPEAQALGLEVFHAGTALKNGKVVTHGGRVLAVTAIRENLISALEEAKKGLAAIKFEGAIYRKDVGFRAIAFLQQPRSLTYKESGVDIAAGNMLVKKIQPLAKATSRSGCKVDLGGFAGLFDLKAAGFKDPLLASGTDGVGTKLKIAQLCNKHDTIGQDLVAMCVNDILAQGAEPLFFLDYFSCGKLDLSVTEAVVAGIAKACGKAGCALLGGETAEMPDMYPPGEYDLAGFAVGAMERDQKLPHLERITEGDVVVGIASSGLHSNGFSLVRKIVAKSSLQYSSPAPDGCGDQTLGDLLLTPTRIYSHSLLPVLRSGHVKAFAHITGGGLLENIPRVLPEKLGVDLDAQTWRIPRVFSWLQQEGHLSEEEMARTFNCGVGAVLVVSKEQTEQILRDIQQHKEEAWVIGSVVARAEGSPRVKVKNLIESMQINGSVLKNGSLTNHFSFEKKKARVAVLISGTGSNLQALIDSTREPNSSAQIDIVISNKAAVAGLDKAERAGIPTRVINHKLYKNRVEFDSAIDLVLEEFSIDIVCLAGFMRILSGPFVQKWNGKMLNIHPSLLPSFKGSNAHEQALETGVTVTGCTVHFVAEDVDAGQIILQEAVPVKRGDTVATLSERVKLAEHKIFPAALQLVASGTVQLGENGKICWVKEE

[3] = target: T2, Trifunctional purine biosynthetic protein adenosine-3 (Mus musculus, UniProt Q64737); experiment: Tested for the inhibition of trifunctional Glycinamide ribonucleotide formyltransferase isolated from murine L1210 cells.; type: functional
T2 sequence (Q64737 whole entry): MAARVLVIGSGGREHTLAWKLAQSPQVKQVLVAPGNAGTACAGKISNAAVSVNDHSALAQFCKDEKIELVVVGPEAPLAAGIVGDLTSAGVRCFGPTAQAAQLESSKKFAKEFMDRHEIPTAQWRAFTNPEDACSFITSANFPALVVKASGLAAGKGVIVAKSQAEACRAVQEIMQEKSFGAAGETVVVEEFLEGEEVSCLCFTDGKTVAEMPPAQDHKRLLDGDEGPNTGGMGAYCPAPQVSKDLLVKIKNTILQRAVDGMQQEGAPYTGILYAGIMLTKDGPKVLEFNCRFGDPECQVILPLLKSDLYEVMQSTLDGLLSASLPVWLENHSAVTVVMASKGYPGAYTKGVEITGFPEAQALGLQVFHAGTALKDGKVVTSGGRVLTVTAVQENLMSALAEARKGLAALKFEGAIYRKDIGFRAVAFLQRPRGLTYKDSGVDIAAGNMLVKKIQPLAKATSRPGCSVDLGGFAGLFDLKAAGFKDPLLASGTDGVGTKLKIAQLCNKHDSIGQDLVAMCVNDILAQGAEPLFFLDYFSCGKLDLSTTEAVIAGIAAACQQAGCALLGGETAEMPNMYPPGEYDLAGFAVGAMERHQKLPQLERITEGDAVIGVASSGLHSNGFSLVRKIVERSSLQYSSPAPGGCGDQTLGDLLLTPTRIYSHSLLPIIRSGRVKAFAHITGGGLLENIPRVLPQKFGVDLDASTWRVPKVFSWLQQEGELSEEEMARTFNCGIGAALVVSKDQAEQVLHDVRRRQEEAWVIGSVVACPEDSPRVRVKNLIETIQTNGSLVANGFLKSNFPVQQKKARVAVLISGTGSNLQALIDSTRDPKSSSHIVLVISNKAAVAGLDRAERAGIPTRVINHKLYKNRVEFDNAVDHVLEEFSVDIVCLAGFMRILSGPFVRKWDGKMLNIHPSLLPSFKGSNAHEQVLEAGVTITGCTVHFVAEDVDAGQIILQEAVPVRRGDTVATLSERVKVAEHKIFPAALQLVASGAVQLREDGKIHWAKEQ

Ki [3] | SMILES | IC50 [1] | Ki [2]
– | Nc1ncc2c(n1)NCC(CCc1ccc(C(=O)N[C@@H](CCC(=O)O)C(=O)O)cc1)C2 (stereo partly specified) | 4 ng/mL (≈ 9.36 nM) | 186 µM
0.12 µM | Nc1nc2c(c(=O)[nH]1)C[C@@H](CCc1ccc(C(=O)N[C@@H](CCC(=O)O)C(=O)O)cc1)CN2 [LOMETREXOL] | – | –
27 µM | O=C(O)CC[C@H](NC(=O)c1ccc(CCC2CNc3ncnc(O)c3C2)cc1)C(=O)O (stereo partly specified) | > 20000 ng/mL | 82.1 µM
